Results as given in PubChem BioAssay (NCI).
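Method: 48-hour compound exposure of cells in 96-well plates, five concentrations, linear interpolation of endpoints. At the GI50, growth is halved. Definition used: TGI = concentration required for complete inhibition of growth.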

Columns and labels:
Experiment in all cases: inhibition of tumour cell growth, NCI panel, 48 h
CAKI-1 renal = test system: CAKI-1 renal
HOP-92 NSCLC = test system: HOP-92 NSCLC
M14 melanoma = test system: M14 melanoma
NCI-H23 lung = test system: NCI-H23 lung
NCI-H460 lung = test system: NCI-H460 lung
SK-MEL-5 melanoma = test system: SK-MEL-5 melanoma
SN12C renal = test system: SN12C renal
SR leukemia = test system: SR leukemia
SW-620 colon = test system: SW-620 colon
UACC-257 melanoma = test system: UACC-257 melanoma

SMILES	GI50 (CAKI-1 renal) [µM]	TGI (CAKI-1 renal) [µM]	GI50 (HOP-92 NSCLC) [µM]	TGI (HOP-92 NSCLC) [µM]	GI50 (M14 melanoma) [µM]	TGI (M14 melanoma) [µM]	GI50 (NCI-H23 lung) [µM]	TGI (NCI-H23 lung) [µM]	GI50 (NCI-H460 lung) [µM]	TGI (NCI-H460 lung) [µM]	GI50 (SK-MEL-5 melanoma) [µM]	TGI (SK-MEL-5 melanoma) [µM]	GI50 (SN12C renal) [µM]	TGI (SN12C renal) [µM]	GI50 (SR leukemia) [µM]	TGI (SR leukemia) [µM]	GI50 (SW-620 colon) [µM]	TGI (SW-620 colon) [µM]	GI50 (UACC-257 melanoma) [µM]	TGI (UACC-257 melanoma) [µM]
Nc1ccc(-c2nc3ccccc3o2)cc1S	20.5	36.4	18.8	42.3	15.5	36.7	14.5	35.6	13.2	29.6	12.5	25.1	13.2	27.5	10.5	64	20.7	44.5	23.1	59.8
CCCc1nc(NC#N)nc(C(=O)NC23CC4CC(CC(C4)C2)C3)c1C		> 100		> 100		> 100		> 100		> 100		> 100		> 100		> 100		> 100		> 100
CNC(=O)NC(CCCCNC(=O)OCc1ccccc1)C(=O)OCc1ccccc1 (centres undefined)		> 80.2		45.3		43		> 100		> 100		31.5		> 84.6		99.5		> 100		36.8
O=C1/C(=C/c2ccccc2F)CN(C(=O)C(Cl)Cl)C/C1=C\c1ccccc1F	0.986	2.3	1.53	3.39	0.387	1.61	0.389	1.56	0.55	2.24	0.533	1.64	0.244	0.691	0.0665		0.093	0.343	1.08	3.19
